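Test compounds were applied to cells in 96-well plates for 48 hours at 5 doses. Abbreviation: GI50, concentration required for 50% inhibition of growth. TGI denotes the concentration required for complete inhibition of growth.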 Some results are limits rather than exact numbers.

Test systems include A549 NSCLC; COLO 205 colon; NCI-H226 lung; NCI-H460 lung; OVCAR-4 ovarian; T-47D breast; SW-620 colon; TK-10 renal; RPMI-8226 leukemia; SK-MEL-28 melanoma.
What all share (assay): inhibition of tumour cell growth, NCI panel, 48 h

As to `CC1C(=O)C(C)C(c2ccccc2)N(N=O)C1c1ccccc1` (configuration not stated), the TGI is greater than 1000 µM in the test with A549 NSCLC; greater than 674 µM in the test on COLO 205 colon; 572 µM with NCI-H226 lung; greater than 1000 µM in the test with NCI-H460 lung; greater than 661 µM in the test on OVCAR-4 ovarian; 311 µM with T-47D breast. Further, the TGI was greater than 1000 µM with SW-620 colon, 640 µM with TK-10 renal, greater than 1000 µM with RPMI-8226 leukemia and greater than 834 µM with SK-MEL-28 melanoma. Moreover, the GI50 was 260 µM in the test on NCI-H226 lung, greater than 378 µM in the test with OVCAR-4 ovarian and greater than 1000 µM in the test on SW-620 colon.

As to `O=NNc1nc(-c2cccnc2)nc2ccccc12`, the TGI in the test on A549 NSCLC, in the test on COLO 205 colon, in the test with NCI-H226 lung, in the test on NCI-H460 lung, with OVCAR-4 ovarian and in the test with T-47D breast was greater than 100 µM each time. In addition, the TGI in the test on SW-620 colon, with TK-10 renal and in the test with SK-MEL-28 melanoma was greater than 100 µM in each case.

In the case of `CCc1cc(O)c(Cl)c(C)c1Cl`, the TGI in the test with A549 NSCLC is greater than 100 µM; with COLO 205 colon, 41.4 µM; in the test with NCI-H460 lung, 33.7 µM; with OVCAR-4 ovarian it was 28.5 µM; with T-47D breast, greater than 100 µM; in the test with SW-620 colon it was 43.6 µM. The figures for the TGI in the test on TK-10 renal, in the test on RPMI-8226 leukemia and in the test on SK-MEL-28 melanoma were 35.9 µM, 42.3 µM and 36.6 µM, respectively.

For the compound `Cc1nc2sc(C(=O)Nc3ccccc3)c(N)c2cc1C(=O)/C=C/c1ccccc1`, the GI50 in the test with A549 NSCLC was 2.08 µM; with COLO 205 colon, 2.02 µM; with NCI-H226 lung, 2.04 µM; with NCI-H460 lung, 1.96 µM; in the test with OVCAR-4 ovarian, 3.1 µM; in the test on T-47D breast, 2.48 µM. For the same compound, the GI50 is 1.74 µM in the test with SW-620 colon, 2.3 µM with TK-10 renal and 1.67 µM in the test with RPMI-8226 leukemia. For the same compound, the TGI in the test with A549 NSCLC is 4.91 µM; with COLO 205 colon it was 4.49 µM; in the test with NCI-H226 lung, 4.6 µM; with NCI-H460 lung it was 4.15 µM; in the test on OVCAR-4 ovarian, 18.5 µM; with T-47D breast, 8.2 µM. Further, the TGI in the test on SW-620 colon turned out to be 4.49 µM; in the test on TK-10 renal, 6.39 µM; in the test on RPMI-8226 leukemia, 5.2 µM.

`COc1ccc2c3c(c(=O)n(C)c2c1OC)C=CC(C)(C)O3`: the TGI is greater than 100 µM in the test on A549 NSCLC; 40.2 µM with COLO 205 colon; 80.9 µM in the test with NCI-H226 lung; 41.3 µM in the test with OVCAR-4 ovarian; greater than 100 µM with T-47D breast; greater than 100 µM in the test on SW-620 colon. Moreover, the TGI with TK-10 renal is greater than 100 µM; in the test with RPMI-8226 leukemia, 29.3 µM; in the test on SK-MEL-28 melanoma it was greater than 100 µM.

With `c1cnc2[nH]cc(-c3csc(-c4cn(CCCCN5CCOCC5)c5ccccc45)n3)c2c1`, the GI50 is 1.89 µM in the test with A549 NSCLC; 1.73 µM with COLO 205 colon; 2.29 µM in the test on NCI-H226 lung; 2.06 µM in the test on OVCAR-4 ovarian; 1.33 µM with T-47D breast; 1.77 µM with SW-620 colon. In addition, the GI50 is 2.77 µM in the test with TK-10 renal, 1.83 µM in the test with RPMI-8226 leukemia and 1.81 µM in the test on SK-MEL-28 melanoma. Moreover, the TGI in the test on A549 NSCLC stood at 4.13 µM; in the test on COLO 205 colon, 3.51 µM; in the test on NCI-H226 lung it was 8.23 µM; in the test on OVCAR-4 ovarian, 5.69 µM; in the test with T-47D breast it was 3.9 µM; in the test with SW-620 colon it was 3.54 µM. For the same compound, the figures for the TGI in the test with TK-10 renal, with RPMI-8226 leukemia and in the test with SK-MEL-28 melanoma were 7.24 µM, 4.29 µM and 3.3 µM, respectively.

For the compound `CCCCn1cnc2c(SC)ncnc21`, the TGI with A549 NSCLC, in the test with COLO 205 colon, in the test with NCI-H460 lung, in the test with OVCAR-4 ovarian, in the test with T-47D breast and in the test with SW-620 colon was greater than 100 µM in each case. The TGI with TK-10 renal, in the test with RPMI-8226 leukemia and with SK-MEL-28 melanoma was greater than 100 µM throughout.

On to `CO/N=C(\C)c1ccc(Nc2cc(-c3ccccc3)nc3c(O)cccc23)cc1`, for which the GI50 in the test on A549 NSCLC is 12.8 µM; in the test on COLO 205 colon it was 17.2 µM; in the test on NCI-H226 lung it was 22.4 µM; in the test on OVCAR-4 ovarian, 19.9 µM; in the test on T-47D breast, 9.07 µM; in the test with SW-620 colon, 13.6 µM. For the same compound, the GI50 in the test on RPMI-8226 leukemia was 15.8 µM; in the test on SK-MEL-28 melanoma, 25.5 µM. The TGI came to 28.9 µM in the test on A549 NSCLC; 34.5 µM in the test with COLO 205 colon; 78.4 µM in the test with NCI-H226 lung; 50.7 µM with OVCAR-4 ovarian; 27.8 µM with T-47D breast; 40 µM in the test with SW-620 colon. For the same compound, the TGI with RPMI-8226 leukemia is 37 µM; with SK-MEL-28 melanoma, 84.8 µM.

In the case of `CC12CCC(=O)C=C1CCC1C2C(O)CC2(C)C(c3csc(N)n3)CCC12` (configuration not stated), the TGI in the test on A549 NSCLC, in the test with COLO 205 colon, in the test on NCI-H226 lung, in the test on OVCAR-4 ovarian, with T-47D breast and in the test with SW-620 colon was greater than 100 µM in each case. For the same compound, the TGI in the test with TK-10 renal, with RPMI-8226 leukemia and in the test on SK-MEL-28 melanoma was greater than 100 µM throughout.

Consider `CC(=O)c1cc([N+](=O)[O-])ccc1OCC(=O)O`, for which the TGI in the test with A549 NSCLC, with COLO 205 colon, in the test with NCI-H226 lung, in the test with NCI-H460 lung, in the test on OVCAR-4 ovarian and with SW-620 colon was greater than 100 µM each time. Moreover, the TGI in the test on TK-10 renal, with RPMI-8226 leukemia and in the test on SK-MEL-28 melanoma was greater than 100 µM each time.

As to `COc1cc([C@@H]2c3cc4c(cc3[C@@H](NC(=O)c3ccccc3)C3COC(=O)[C@@H]32)OCO4)cc(OC)c1O` (some centres not stated), the TGI in the test on A549 NSCLC is 16.6 µM; in the test with COLO 205 colon it was 92.8 µM; in the test with NCI-H226 lung, 8.28 µM; in the test with NCI-H460 lung, 15.2 µM; in the test on OVCAR-4 ovarian, greater than 100 µM; in the test on SW-620 colon, greater than 100 µM. The TGI with TK-10 renal is 92.5 µM; in the test on RPMI-8226 leukemia, 21.8 µM; in the test with SK-MEL-28 melanoma, 87.7 µM.

As to `Cc1ccc(NC(=O)/C(=N\Nc2ccc([N+](=O)[O-])cc2[N+](=O)[O-])C2C(=O)NC(=O)NC2=O)cc1`, the TGI in the test with A549 NSCLC, in the test on COLO 205 colon, in the test with NCI-H226 lung, with NCI-H460 lung, in the test with OVCAR-4 ovarian and in the test on SW-620 colon was greater than 100 µM throughout. Besides, the TGI in the test with TK-10 renal, with RPMI-8226 leukemia and with SK-MEL-28 melanoma was greater than 100 µM in each case.

The values are drawn from PubChem BioAssay (NCI).
